Data as given in PMC7824033, “Flavones, Flavonols, and Glycosylated Derivatives—Impact on Candida albicans Growth and Virulence, Expression of CDR1 and ERG11, Cytotoxicity” (Pharmaceuticals, 2020).
Values after ≈ are worked out from the molar mass of the structure shown. Where two headings read alike, the source gives them in different places.

Key:
C. albicans = details: cited from earlier work
in vitro = details: pig
Description: Preparation of PLP2 cell line was performed with freshly harvested porcine liver supplied from a local slaughter house. Tissues from the liver were washed in Hank’s balanced salt solution comprising 100 U/mL penicillin and 100 μg/mL streptomycin and split into 1 × 1 mm^3 explants. Some of the prepared explants were set in 25 cm^2 tissue flasks in Dulbecco’s modified Eagle’s medium (DMEM) with 10% fetal bovine serum (FBS), 2 mM nonessential amino acids, 100 U/mL penicillin, and […] streptomycin, and incubation was conducted at 37 °C with 5% CO2 in a humidified atmosphere. The fresh medium was added every 2 days. Cultivation of the cells was further conducted with direct observation by the phase contrast microscope every 2–3 days. Before confluence was achieved, cells were subcultured and seeded in 96-well plates at a density of 1.0 × 10^4 cells per well and cultivated in DMEM supplemented with 10% FBS, 100 U/mL penicillin, and 100 μg/mL streptomycin. Previously described Sulforhodamine B assay was used for the determination of cytotoxicity. The obtained results were defined as GI50 values corresponding to the compound concentration that inhibits 50% of the net cell growth. Ellipticine was used as a positive control.

[1] = tested on: C. albicans 475/15 hyphal growth; assay: Anti-hyphal forming activity; type: cell-based, Candida albicans; details: MIC, 4 h, YPD + 10% FBS
Description: C. albicans 475/15 cells were incubated with MIC of tested compounds in YPD + 10% FBS, at 37 °C, for 4 h. Cells were examined under microscope (Nikon Eclipse TS2, Amsterdam, Netherland) and number of cells, growing in the yeast or hyphal and germ tube formations, was determined. Assay was performed in triplicate and percentage of hyphae was determined.

C. albicans biofilm = details: cited from earlier work
C. albicans 475/15 = assay: Microdilution assay, MIC and MFC; type: cell-based; details: Candida albicans, C. albicans 475/15, mean ± SD of three replicates; for MFC: read-out: MFC; for MIC: read-out: MIC
From the text: (§1) C. albicans was isolated from oral cavities of patients at ENT Clinic, Clinical Hospital Centre Zvezdara, Belgrade, Serbia after obtaining informed written consent and identified by using CHROMagar plates (Biomerieux, Craponne, France). Strains were maintained on Sabouraud Dextrose Agar (Merck, Darmstadt, Germany) and are deposited at the Mycological Laboratory, Department of Plant Physiology, Institute for Biological Research “Siniša Stanković”, National Institute of Republic of Serbia, University of Belgrade. The collection of samples was approved by the Ethical Committee (Office for Human Research Protection, Zvezdara University Medical Center, Belgrade, Serbia, document issued 26 October 2016).
(§2) Microdilution assay with some modification was used for determination of minimum inhibitory (MIC) and minimum fungicidal concentrations (MFC). Yeast cultures were adjusted to 1.0 × 10^5 CFU/per well with sterile PBS (Phosphate buffered saline, pH 7.4). The 96-well microtiter plates with serially diluted flavonoids (concentration range 0.3–75 µg/mL) in liquid broth were incubated at 37 °C for 24 h. After incubation, MIC and MFC were determined. The lowest concentrations that were not inducing microscopically observed growth were considered as MIC. For microscopic determination of growth, we used inverted microscope Nikon Eclipse TS2 (Amsterdam, Netherland) and examined the fungal growth in the wells of 96-well microtiter plates compared to the control (untreated yeast cells). MFC values were determined as concentrations without visible growth after serial sub-cultivation of 10 µL of samples at 37 °C for 24 h. Ketoconazole and amphotericin B (SigmaAldrich, Darmstadt, Germany) were used as an antifungal control. The tested flavonoids were obtained from Extrasynthese, Rhone, France.

C. albicans 13/15 = assay: Microdilution assay, MIC and MFC; type: cell-based; details: Candida albicans, C. albicans 13/15, mean ± SD of three replicates; for MFC: read-out: MFC; for MIC: read-out: MIC
From the text: as §1, §2

C. albicans 527/14 = assay: Microdilution assay, MIC and MFC; type: cell-based; details: Candida albicans, C. albicans 527/14, mean ± SD of three replicates; for MFC: read-out: MFC; for MIC: read-out: MIC
From the text: as §1, §2

C. albicans 10/15 = assay: Microdilution assay, MIC and MFC; type: cell-based; details: Candida albicans, C. albicans 10/15, mean ± SD of three replicates; for MFC: read-out: MFC; for MIC: read-out: MIC
From the text: as §1, §2

Candida albicans = assay: Microdilution assay, MIC (strain not named); type: cell-based; details: C. albicans, this study, strain not given, read-out: minimum inhibitory concentration (MIC)
From the text: as §1, §2

Row | SMILES | GI50 (in vitro) [µg/mL] | reduction of hyphal growth (words) [1] | MFC (C. albicans 475/15) [µg/mL] | MIC (C. albicans 475/15) [µg/mL] | MFC (C. albicans 13/15) [µg/mL] | MIC (C. albicans 13/15) [µg/mL] | MFC (C. albicans 527/14) [µg/mL] | MIC (C. albicans 527/14) [µg/mL] | MFC (C. albicans 10/15) [µg/mL] | MIC (C. albicans 10/15) [µg/mL] | MIC (Candida albicans) [µg/mL] | other results
1 | O=c1c(O[C@@H]2O[C@H](CO)[C@@H](O)[C@H](O)[C@H]2O)c(-c2ccc(O)c(O)c2)oc2cc(O)cc(O)c12 [Isoquercitrin, isoquercitrin] | > 400 | efficient in reduction of hyphal growth | 75 ± 2 (≈ 162 µM) | 37.5 ± 1 (≈ 80.8 µM) | 75 ± 2 (≈ 162 µM) | 37.5 ± 2 (≈ 80.8 µM) | 75 ± 2 (≈ 162 µM) | 37.5 ± 1 (≈ 80.8 µM) | 75 ± 2 (≈ 162 µM) | 37.5 ± 2 (≈ 80.8 µM) | 37.5 (≈ 80.8 µM) | MIC (C. albicans; C. albicans ATCC 90028): 2.5 µg/mL (≈ 5.38 µM); reduction of hyphal growth (words) ([1]; listed as isoquercitrin): reduced; concentration with antibiofilm potential (C. albicans biofilm; ref 19): 200 µg/mL
2 | O=c1c(O)c(-c2ccc(O)c(O)c2)oc2cc(O)cc(O)c12 [Quercetin, quercetin] | > 400 | only slight inhibition | 150 ± 10 (≈ 496 µM) | 75 ± 2 (≈ 248 µM) | 150 ± 20 (≈ 496 µM) | 75 ± 10 (≈ 248 µM) | 150 ± 10 (≈ 496 µM) | 75 ± 2 (≈ 248 µM) | 150 ± 20 (≈ 496 µM) | 75 ± 3 (≈ 248 µM) | 75 (≈ 248 µM) | MIC (C. albicans; C. albicans ATCC 10231, ref 16): 8 µg/mL (≈ 26.5 µM); MIC (C. albicans; C. albicans ATCC 10231, ref 17): 100 µg/mL (≈ 331 µM); MIC (C. albicans; clinical isolates and C. albicans 10231): > 83 µg/mL; MIC (C. albicans; clinical isolates and reference strains ATCC 10231 and SC5314): 128 to 512 µg/mL; activity against preformed 24-h-old biofilms (C. albicans biofilm; 625 µg/mL, C. albicans ATCC 90028): inactive; SMIC (sessile cells MIC) (C. albicans biofilm; C. albicans ATCC 10231, SC 5314 and clinical isolates): ≥ 1024 µg/mL; concentration that prevented biofilm establishment (C. albicans biofilm; C. albicans NBC099): 200 µg/mL; SMIC (sessile cells MIC) (C. albicans biofilm; oral and reference isolates SC5314 and 3153A): > 200 µg/mL
